Data on 4 molecules can be found in patent US7973075B2, “Kainate receptor-selective epimeric analogs of dysiherbaine” (priority 2007, dated 2011).

The target in experiment [1] is T1, GluR6a (Rattus norvegicus, UniProt P42260).
T1 construct: expressed in transfected cells; host or cells: HEK-293-T/17
Put plainly: Whole-cell patch clamp recordings, transfected HEK-293-T/17 cells, Example 2. The class given is cell-based. The following applies: for agonist activity: analog-evoked currents from GluR6a receptors (words): 1 s test application of the analog at a high concentration (50-100 μM). On the procedure: (§1) Cell Culture and Electrophysiology. HEK-293-T/17 cells were maintained in Dulbecco's modified Eagle's medium (DMEM) supplemented with 100 μg/mL penicillin, 100 μg/mL streptomycin, and 10% heat inactivated fetal bovine serum. One day before transfection, HEK-T/17 cells were plated at low density on glass coverslips coated with 100 μg/ml poly-D-lysine and 100 μg/ml collagen. Cells were transfected with receptor cDNAs ([…]) in combination with enhanced green fluorescent protein (eGFP) cDNA for visualization of transfected cells. Transfections were carried out with Fugene6 (Roche Applied Science) according to the manufacturer's protocol and used 2-3 days following transfection. Internal solution consisted of 110 mM CsF, 30 mM CsCl, 4 mM NaCl, 0.5 mM CaCl2, 10 mM HEPES, and 5 mM EGTA, and was adjusted to pH=7.3 with CsOH. The external solution contained 150 mM NaCl, 2.8 mM KCI, 2 mM CaCl2, 1 mM MgCl2, and 10 mM HEPES, adjusted to pH=7.3 with NaOH. Patch electrodes from thick-walled borosilicate glass (Warner Instruments, Hamden, Conn.) were pulled to a final resistance of 1.5 to 2.5 MO after fire polishing. […] To determine the pre-desensitization IC50 of selected analogs, several control glutamate (10 mM) applications were followed by a 2.5 minute application of various concentrations of 8-deoxy-neoDH, 9-deoxy-neoDH, or MSVIII-19, after which the analogs were co-applied with glutamate. A similar protocol was followed to measure the recovery of glutamate-evoked currents, with the exception that the analogs were not co-applied with glutamate. Whole cell patch clamp recordings were carried out using an Axopatch 200B amplifier (Axon Instruments). Data were analyzed with Origin 7.5 (OriginLab Corp.), and Prism4 (GraphPad Software Inc.); inhibition-response curves were plotted and fit with a one-site competition curve constrained to fixed minima (0) and maxima (100).
(§2) The pharmacological activities of the C2/C4 epimers were determined in patch-clamp assays with GluR5-2a or GluR6a KARs as well as GluR4(i) AMPA receptors.
(§3) 30 μM 2,4-epi-neoDH reduced glutamate-induced currents from GluR5-2a receptors by −70% while the same concentration reduced glutamate-induced currents from GluR6a receptors by −30% (FIG. 13A). […] We noted that the data derived from recording of the GluR5-2a receptor was poorly fit by the single component logistic curve, particularly at the lower concentrations. This inconsistency may arise from inter-subunit or inter-dimer cooperativity in the inhibitory activity or may be an apparent artifact resulting from run-down of the GluR5-2a receptor currents.

A further experiment has as its system mice. Put plainly: Seizure (convulsant) activity after i.c.v. injection. The format is in vivo.
Experiment [2] addresses T1, GluR6a. The following applies: Sanders et al., 2005; cited from earlier work.
In the next experiment the target is T2, GluR1 (Rattus norvegicus, UniProt P19490).
T2 construct: expressed in transfected cells; host or cells: COS-7 or HEK-T/17
The following applies: Table 1; comparison value of MSVIII-19 (Sanders et al., 2005); read-out: GluR1 binding affinity (displacement of [3H]AMPA); cited from earlier work. In general terms: In a radioligand displacement assay an active substance lowers the binding of a labelled ligand.

The target of another experiment is T3, GluR2(i) (Rattus norvegicus, UniProt P19491).
T3 construct: expressed in transfected cells; host or cells: HEK-293-T/17
The note with it: Sanders et al., 2005; cited from earlier work.

The next experiment addresses T4, GluR1(i) (Rattus norvegicus, UniProt P19490).
T4 construct: expressed in transfected cells; host or cells: HEK-293-T/17
The note with it: Sanders et al., 2005; cited from earlier work.

The next experiment has as its target T5, KA2 (Rattus norvegicus, UniProt Q63273).
T5 construct: expressed in transfected cells; host or cells: HEK-293-T/17
T5 sequence (Q63273 15-979): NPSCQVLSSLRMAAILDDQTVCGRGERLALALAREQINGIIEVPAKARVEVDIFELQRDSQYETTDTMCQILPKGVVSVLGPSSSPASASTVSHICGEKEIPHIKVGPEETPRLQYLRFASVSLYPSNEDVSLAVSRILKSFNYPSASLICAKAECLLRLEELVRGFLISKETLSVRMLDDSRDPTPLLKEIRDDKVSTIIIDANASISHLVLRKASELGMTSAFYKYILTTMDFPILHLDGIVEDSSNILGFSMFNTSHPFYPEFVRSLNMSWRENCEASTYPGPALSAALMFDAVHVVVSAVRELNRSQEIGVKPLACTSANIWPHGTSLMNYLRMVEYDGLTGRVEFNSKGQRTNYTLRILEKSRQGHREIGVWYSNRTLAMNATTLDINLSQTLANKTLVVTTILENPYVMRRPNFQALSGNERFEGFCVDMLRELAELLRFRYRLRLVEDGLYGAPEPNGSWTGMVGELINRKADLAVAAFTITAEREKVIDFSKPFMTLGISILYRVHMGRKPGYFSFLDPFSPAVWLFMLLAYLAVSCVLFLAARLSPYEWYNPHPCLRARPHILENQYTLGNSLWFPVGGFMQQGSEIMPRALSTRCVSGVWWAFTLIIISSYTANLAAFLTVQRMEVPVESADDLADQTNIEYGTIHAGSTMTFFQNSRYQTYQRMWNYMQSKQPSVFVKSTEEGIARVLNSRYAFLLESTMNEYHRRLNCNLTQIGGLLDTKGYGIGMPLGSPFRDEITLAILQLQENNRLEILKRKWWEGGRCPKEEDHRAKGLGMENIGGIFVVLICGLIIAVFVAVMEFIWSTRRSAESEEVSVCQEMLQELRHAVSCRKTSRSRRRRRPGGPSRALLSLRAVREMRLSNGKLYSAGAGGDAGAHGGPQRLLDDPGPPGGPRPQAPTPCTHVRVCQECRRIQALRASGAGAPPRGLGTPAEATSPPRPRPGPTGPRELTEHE
The following applies: Tables 1-2; comparison values of neoDH and MSVIII-19 (Sanders et al., 2005); cited from earlier work.

In the next experiment the target is T6, GluR2 (Rattus norvegicus, UniProt P19491).
T6 construct: expressed in transfected cells; host or cells: COS-7 or HEK-T/17
The following applies: Table 1; comparison value of MSVIII-19 (Sanders et al., 2005); read-out: GluR2 binding affinity (displacement of [3H]AMPA); cited from earlier work.

The target of the next experiment is T7, GluR4(i) AMPA receptors (Rattus norvegicus, UniProt P19493).
T7 construct: expressed in transfected cells; host or cells: HEK-293-T/17
Put plainly: Whole-cell patch clamp recordings, transfected HEK-293-T/17 cells, Example 2. The following applies: 300 μM analog. The format is cell-based. The procedure:
as §1, §2, §3
For orientation: In patch-clamp work, channel activity is measured electrically.

SMILES strings stand for the structures. “Also recorded” adds a separate entry of the source.

T1 sequence (P42260 32-908): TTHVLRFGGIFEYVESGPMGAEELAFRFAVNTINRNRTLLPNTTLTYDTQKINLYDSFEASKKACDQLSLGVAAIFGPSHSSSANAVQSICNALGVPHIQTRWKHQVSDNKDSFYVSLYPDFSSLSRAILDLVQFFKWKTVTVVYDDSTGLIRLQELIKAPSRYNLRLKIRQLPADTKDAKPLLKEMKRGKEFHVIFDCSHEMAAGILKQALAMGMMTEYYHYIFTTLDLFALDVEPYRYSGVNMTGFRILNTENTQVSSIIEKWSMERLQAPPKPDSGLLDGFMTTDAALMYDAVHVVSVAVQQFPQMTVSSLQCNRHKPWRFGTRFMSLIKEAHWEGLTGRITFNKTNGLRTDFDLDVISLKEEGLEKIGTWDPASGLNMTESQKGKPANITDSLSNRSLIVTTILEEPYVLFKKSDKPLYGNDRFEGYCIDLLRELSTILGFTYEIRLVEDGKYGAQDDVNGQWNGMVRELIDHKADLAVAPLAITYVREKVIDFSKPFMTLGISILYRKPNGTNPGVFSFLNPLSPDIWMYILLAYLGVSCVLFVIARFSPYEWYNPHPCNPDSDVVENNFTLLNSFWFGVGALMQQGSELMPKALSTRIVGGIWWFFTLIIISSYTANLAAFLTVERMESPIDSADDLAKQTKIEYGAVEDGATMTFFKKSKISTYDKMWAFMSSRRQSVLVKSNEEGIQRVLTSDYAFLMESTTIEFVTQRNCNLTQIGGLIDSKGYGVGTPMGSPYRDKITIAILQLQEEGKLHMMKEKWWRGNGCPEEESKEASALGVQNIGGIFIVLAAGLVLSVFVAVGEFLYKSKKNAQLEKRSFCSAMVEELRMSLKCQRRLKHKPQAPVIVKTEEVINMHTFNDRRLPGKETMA
T6 sequence (P19491 22-883 isoform P19491-2 limits assumed): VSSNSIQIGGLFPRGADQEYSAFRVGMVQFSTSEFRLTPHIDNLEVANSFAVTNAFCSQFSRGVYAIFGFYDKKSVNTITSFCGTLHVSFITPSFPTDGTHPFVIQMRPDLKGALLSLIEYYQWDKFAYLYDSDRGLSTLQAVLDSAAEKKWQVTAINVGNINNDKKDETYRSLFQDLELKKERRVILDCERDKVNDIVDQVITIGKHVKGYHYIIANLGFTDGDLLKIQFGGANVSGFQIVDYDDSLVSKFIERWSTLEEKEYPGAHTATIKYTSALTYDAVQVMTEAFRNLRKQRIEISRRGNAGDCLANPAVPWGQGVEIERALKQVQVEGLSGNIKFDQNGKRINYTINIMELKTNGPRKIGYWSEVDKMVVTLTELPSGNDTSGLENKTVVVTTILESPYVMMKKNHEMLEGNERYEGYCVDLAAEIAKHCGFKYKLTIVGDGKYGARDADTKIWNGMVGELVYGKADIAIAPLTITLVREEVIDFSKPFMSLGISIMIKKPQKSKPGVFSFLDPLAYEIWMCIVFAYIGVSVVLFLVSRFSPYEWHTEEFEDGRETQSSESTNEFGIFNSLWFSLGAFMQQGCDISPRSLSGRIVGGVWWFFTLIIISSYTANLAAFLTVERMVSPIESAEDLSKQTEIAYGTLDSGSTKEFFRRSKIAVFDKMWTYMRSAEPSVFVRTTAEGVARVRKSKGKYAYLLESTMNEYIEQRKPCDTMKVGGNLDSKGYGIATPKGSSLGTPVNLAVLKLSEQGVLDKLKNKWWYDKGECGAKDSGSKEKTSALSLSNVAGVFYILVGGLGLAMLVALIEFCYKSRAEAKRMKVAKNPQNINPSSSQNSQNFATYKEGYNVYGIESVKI
T3 sequence (P19491 22-883 isoform P19491-2 limits assumed): as above
T4 sequence (P19490 19-907 isoform P19490-2 limits assumed): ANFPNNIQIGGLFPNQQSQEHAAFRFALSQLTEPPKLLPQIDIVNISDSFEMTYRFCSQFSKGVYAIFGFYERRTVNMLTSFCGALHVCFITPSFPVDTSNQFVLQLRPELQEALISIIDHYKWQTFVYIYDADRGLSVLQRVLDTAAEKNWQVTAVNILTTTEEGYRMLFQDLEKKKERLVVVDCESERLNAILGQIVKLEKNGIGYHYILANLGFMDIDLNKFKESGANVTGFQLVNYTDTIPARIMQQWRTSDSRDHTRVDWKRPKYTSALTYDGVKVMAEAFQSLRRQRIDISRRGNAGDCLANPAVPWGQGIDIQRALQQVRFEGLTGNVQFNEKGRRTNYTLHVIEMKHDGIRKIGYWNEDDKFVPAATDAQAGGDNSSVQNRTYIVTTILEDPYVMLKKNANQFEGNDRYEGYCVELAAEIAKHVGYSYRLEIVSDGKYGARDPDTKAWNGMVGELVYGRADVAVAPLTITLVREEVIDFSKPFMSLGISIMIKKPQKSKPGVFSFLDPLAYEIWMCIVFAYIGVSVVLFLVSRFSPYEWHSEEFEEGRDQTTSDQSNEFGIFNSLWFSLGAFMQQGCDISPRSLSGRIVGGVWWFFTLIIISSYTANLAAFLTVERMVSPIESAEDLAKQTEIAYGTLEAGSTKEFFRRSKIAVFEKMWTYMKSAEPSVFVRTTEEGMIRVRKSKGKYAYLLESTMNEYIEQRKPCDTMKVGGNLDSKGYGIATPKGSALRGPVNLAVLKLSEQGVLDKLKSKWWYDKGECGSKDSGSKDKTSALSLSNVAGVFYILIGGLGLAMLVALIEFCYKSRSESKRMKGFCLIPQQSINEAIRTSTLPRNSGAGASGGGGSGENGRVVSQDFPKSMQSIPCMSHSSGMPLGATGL
T2 sequence (P19490 19-907 isoform P19490-2 limits assumed): as above
T7 sequence (P19493 22-902 isoform P19493-2 limits assumed): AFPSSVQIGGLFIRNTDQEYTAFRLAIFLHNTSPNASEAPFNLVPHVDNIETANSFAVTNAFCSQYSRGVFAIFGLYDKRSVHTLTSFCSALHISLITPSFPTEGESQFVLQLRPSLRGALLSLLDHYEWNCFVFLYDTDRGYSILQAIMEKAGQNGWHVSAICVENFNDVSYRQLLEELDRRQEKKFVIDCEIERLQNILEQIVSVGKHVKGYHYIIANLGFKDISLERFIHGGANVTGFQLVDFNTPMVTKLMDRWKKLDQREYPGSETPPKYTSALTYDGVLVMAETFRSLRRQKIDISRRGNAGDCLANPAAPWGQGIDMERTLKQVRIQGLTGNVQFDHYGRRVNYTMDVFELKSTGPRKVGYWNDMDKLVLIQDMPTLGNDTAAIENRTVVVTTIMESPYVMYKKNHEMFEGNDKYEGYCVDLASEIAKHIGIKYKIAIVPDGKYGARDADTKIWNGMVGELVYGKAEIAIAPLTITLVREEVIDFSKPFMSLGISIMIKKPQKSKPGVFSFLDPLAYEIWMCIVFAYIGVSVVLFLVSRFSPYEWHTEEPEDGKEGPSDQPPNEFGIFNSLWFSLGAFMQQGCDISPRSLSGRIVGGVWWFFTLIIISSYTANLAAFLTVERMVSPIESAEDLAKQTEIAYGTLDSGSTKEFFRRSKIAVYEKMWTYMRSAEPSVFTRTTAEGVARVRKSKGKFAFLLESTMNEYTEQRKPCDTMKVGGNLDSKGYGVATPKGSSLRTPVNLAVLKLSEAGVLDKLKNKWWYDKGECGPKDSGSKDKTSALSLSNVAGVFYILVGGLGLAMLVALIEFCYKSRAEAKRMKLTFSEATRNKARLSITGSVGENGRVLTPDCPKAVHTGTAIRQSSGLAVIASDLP

In the case of `N[C@@H](C[C@@]1(C(=O)O)CC2OCC(O)C(O)C2O1)C(=O)O` (single isomer, unassigned) [4-epi-neoDH, 4-epi-neodysiherbaine], at GluR6a [1] (30 μM analog), the “recovery of glutamate-evoked currents after analog application, GluR6a” value was “only exhibited a transient desensitization”. Moreover, the “agonist activity: analog-evoked currents from GluR6a receptors (words)” value (“agonist activity: analog-evoked currents” below) at GluR6a [1] is given as “evoked small but detectable currents; also recorded: elicits large currents; also recorded: activates”. In the experiment on mice (i.c.v. injection, mice), the “ED50, fold lower than that of 2,4-epi-neoDH” value was greater than 6 fold.

As to `NC(CC1(C(=O)O)CC2OCC(O)C(O)C2O1)C(=O)O` (stereo not drawn) [8,9-epi-neoDH, 8,9-epi-neodysiherbaine], the “convulsive behavior” value with mice (high doses) is listed as “fails to elicit convulsive behavior even at high doses”.

Turning to `N[C@@H](C[C@]1(C(=O)O)C[C@H]2OCCC[C@H]2O1)C(=O)O` [MSVIII-19, 8,9-dideoxy-neoDH], the Ki at GluR6a [2], at GluR1, on GluR2(i), at GluR1(i) and on GluR2 was greater than 100 µM in each case. Further, on KA2, the “KA2 binding affinity (displacement of [3H]kainate)” value is greater than 100 µM.

As to `N[C@@H](C[C@@]1(C(=O)O)CC2OCC(O)C(O)C2O1)C(=O)O` (single isomer, unassigned) [2,4-epi-neoDH, 2,4-epi-neodysiherbaine], at GluR4(i) AMPA receptors, the “inhibition of currents from GluR4(i) receptors” value is “failed to inhibit”. Further, at GluR6a [1] (30 μM analog), the “recovery of glutamate-evoked currents after analog application, GluR6a” value is given as “current amplitudes recovered more slowly” and the “reduction of glutamate-induced currents from GluR6a receptors” value is roughly 30%. Moreover, the IC50 at GluR6a [1] (10 mM glutamate in continued presence of analog, read-out: IC50 inhibition of glutamate-evoked currents, GluR6a) is 74 µM. In addition, the “agonist activity: analog-evoked currents” value on GluR6a [1] is given as “failed to elicit detectable current; also recorded: antagonist (or possibly a very weak partial agonist); also recorded: fails to activate GluR5 or GluR6 receptors, even at 100 μM”. Also, the “agonist activity: analog-evoked currents” value on GluR6a [1] (listed as 2,4-epineoDH) is reported as “fails to activate”.

For orientation: IC50 means the midpoint of a concentration-inhibition curve.
